Test results from the CheMixHub viscosity set.

Test: xn = mol fraction of the nth substance listed

Cc1ccc(S(=O)(=O)O)cc1 + C[N+](C)(C)Cc1ccccc1.[Cl-]
Settings | viscosity [mPa·s]
298 K, 101 kPa, x2 = 0.3 | 12850

COc1ccccc1 + CCCCCCCCCCCC
viscosity [mPa·s], 101.3 kPa
Settings | x1 = 0.1618 | x1 = 0.2902 | x1 = 0.3869 | x1 = 0.4735 | x1 = 0.5603 | x1 = 0.7159 | x1 = 0.843 | x1 = 0.9414
293.15 K | 1.324 | 1.228 | 1.17 | 1.125 | 1.092 | 1.023 | – | –
303.15 K | 1.123 | 1.048 | – | 0.964 | 0.94 | 0.903 | 0.89 | 0.902
313.15 K | 0.967 | 0.908 | 0.872 | 0.843 | 0.821 | 0.791 | 0.781 | 0.79
323.15 K | 0.844 | 0.797 | 0.768 | 0.744 | 0.726 | 0.701 | 0.692 | 0.699

CCCCCCCCC(=O)O + CCCCCCCCCCCC(=O)O
100 kPa, x2 = 0.25
Settings | viscosity [mPa·s]
293.15 K | 10.12
298.15 K | 8.636
303.15 K | 7.443
308.15 K | 6.47
313.15 K | 5.669
318.15 K | 5.003
323.15 K | 4.444

CC(C)=O + CCCCCC
298.15 K, 101 kPa
Settings | viscosity [mPa·s]
x1 = 0.1416 | 0.303
x1 = 0.2707 | 0.3137
x1 = 0.3888 | 0.3047
x1 = 0.4974 | 0.2983
x1 = 0.5975 | 0.3043
x1 = 0.6901 | 0.3039
x1 = 0.776 | 0.2984
x1 = 0.8559 | 0.3113
x1 = 0.9304 | 0.3144

CCCc1ccccc1 + CC(CC(C)(C)C)CC(C)(C)C
viscosity [mPa·s], 102 kPa
Settings | x1 = 0.101 | x1 = 0.2003 | x1 = 0.3007 | x1 = 0.4005 | x1 = 0.498 | x1 = 0.6 | x1 = 0.7 | x1 = 0.8001 | x1 = 0.9002
293.15 K | 1.24 | 1.16 | 1.09 | 1.03 | 0.983 | 0.939 | 0.905 | 0.877 | 0.861
303.15 K | 1.04 | 0.986 | 0.929 | 0.883 | 0.847 | 0.815 | 0.787 | 0.762 | 0.748
313.15 K | 0.901 | 0.852 | 0.809 | 0.773 | 0.744 | 0.712 | 0.689 | 0.666 | 0.654
323.15 K | 0.785 | 0.75 | 0.713 | 0.685 | 0.656 | 0.629 | 0.609 | 0.589 | 0.578

COc1ccccc1 + CC(C)CO
viscosity [mPa·s], 101.33 kPa
Settings | x1 = 0.1001 | x1 = 0.2001 | x1 = 0.2999 | x1 = 0.4001 | x1 = 0.5 | x1 = 0.6001 | x1 = 0.7 | x1 = 0.8001 | x1 = 0.9002
303.15 K | 1.789 | 1.326 | 1.157 | 1.069 | 1.011 | 0.969 | 0.951 | 0.934 | 0.921
313.15 K | 1.355 | 1.064 | 0.933 | 0.862 | 0.845 | 0.831 | 0.816 | 0.803 | 0.792
323.15 K | 1.063 | 0.829 | 0.768 | 0.743 | 0.736 | 0.731 | 0.718 | 0.708 | 0.697
